The values that follow come from ChEMBL document CHEMBL3046643, “Effect of chronic treatment with new benzylidene-thiazolidine-2,4-dione (LPSF/GQ-06) with potential hypoglycemic on rat Leydig cell steroidogenesis” (Med Chem Res, 2013).

Molecules are shown by their SMILES. Activity calls are given as the source filed them. No cut-off for these calls is given here.

The subject of series [1] is Rattus norvegicus. Nature of the series: Effect on P450scc expression in Rattus norvegicus Wistar albino (rat) Leydig cells at 5 mg/kg, po after 15 days by immunocytochemistry analysis relative to untreated control. Format: functional, organism-based. Further details: dose 5 mg/kg.
Series [2] concerns Rattus norvegicus. Kind of series: Effect on StAR expression in Rattus norvegicus Wistar albino (rat) Leydig cells at 5 mg/kg, po after 15 days by immunocytochemistry analysis relative to untreated control. The series is classed as functional, organism-based. Further details: dose 5 mg/kg.
Series [3] relates to Rattus norvegicus. Kind of series: Toxicity in Rattus norvegicus Wistar albino (rat) Leydig cells assessed as morphological changes at 5 mg/kg, po after 15 days by electron transmission microscopic analysis relative to untreated control. Format: organism-based. To be noted: in vivo, 360 h. Further details: dose 5 mg/kg, route oral.
Series [4] has as its system Rattus norvegicus. Nature of the series: Toxicity in Rattus norvegicus Wistar albino (rat) Leydig cells assessed as morphological changes at 5 mg/kg, po after 15 days by hematoxylin-eosin staining-based light microscopic analysis relative to untreated control. The series is classed as organism-based. Further details: dose 5 mg/kg, route oral. To be noted: in vivo, 360 h.

Series [5] has as its system Rattus norvegicus. Nature of the series: Induction of steroidogenesis in Rattus norvegicus Wistar albino (rat) Leydig cells assessed as increase in pregnenolone-induced testosterone level at 5 mg/kg, po after 15 days by radioimmunoassay (reference value: 34 +/- 5.49 no unit). Format: functional.
For series [6], the system named is Rattus norvegicus. Kind of series: Induction of steroidogenesis in Rattus norvegicus Wistar albino (rat) Leydig cells assessed as increase in 22(R)-OH-C-induced testosterone level at 5 mg/kg, po after 15 days by radioimmunoassay (reference value: 83.5 +/- 3.36 no unit). Format: functional.
Series [7] concerns Rattus norvegicus. Nature of the series: Induction of steroidogenesis in Rattus norvegicus Wistar albino (rat) Leydig cells assessed as increase in dbcAMP-induced testosterone level at 5 mg/kg, po after 15 days by radioimmunoassay (reference value: 69.83 +/- 1.85 no unit). Format: functional.
The test system of series [8] is Rattus norvegicus. Kind of series: Induction of steroidogenesis in Rattus norvegicus Wistar albino (rat) Leydig cells assessed as increase in human chorionic gonadotropin-induced testosterone level at 5 mg/kg, po after 15 days by radioimmunoassay (reference value: 92.75 +/- 4.38 no unit). The series is classed as functional.
For series [9], the system named is Rattus norvegicus. Kind of series: Induction of steroidogenesis in Rattus norvegicus Wistar albino (rat) assessed as increase in total plasma testosterone level at 5 mg/kg, po after 15 days (reference value: 2.01 +/- 1.21 ng/mL). Format: functional.
Series [10] concerns Rattus norvegicus. Nature of the series: Toxicity in Rattus norvegicus Wistar albino (rat) assessed as change in relative dry weight of seminal vesicle at 5 mg/kg, po after 15 days. Format: organism-based. Further details: dose 5 mg/kg, route oral. To be noted: in vivo, 360 h.
Series [11] relates to Rattus norvegicus. Nature of the series: Toxicity in Rattus norvegicus Wistar albino (rat) assessed as change in relative weight of testis at 5 mg/kg, po after 15 days. The series is classed as organism-based. Further details: dose 5 mg/kg, route oral. The following applies: in vivo, 360 h.
Series [12] has as its system Rattus norvegicus. Kind of series: Toxicity in Rattus norvegicus Wistar albino (rat) assessed as change in body weight at 5 mg/kg, po after 15 days. Format: organism-based. Further details: dose 5 mg/kg, route oral. To be noted: in vivo, 360 h.

As for `COc1cccc(OC)c1/C=C1\SC(=O)N(Cc2ccc(C)cc2)C1=O`, the outcome in the series on Rattus norvegicus [1] and in the series with Rattus norvegicus [2] was inactive. For the same compound, the Activity result with Rattus norvegicus [3] was “Non-toxic”; with Rattus norvegicus [4], “Non-toxic”; with Rattus norvegicus [9] it was 7.7 ng/mL; in the series on Rattus norvegicus [10] it was “Non-toxic”; in the series on Rattus norvegicus [11] it was “Non-toxic”; with Rattus norvegicus [12], “Non-toxic”. For the same compound, the testosterone level with Rattus norvegicus [5] came out at 56.66; in the series with Rattus norvegicus [6], 118.3; with Rattus norvegicus [7], 154.16; with Rattus norvegicus [8], 164.1.
